# Results from ChEMBL document CHEMBL2311354, “C-3 halo and 3-methyl substituted 5'-nor-3-deazaaristeromycins: synthesis and antiviral properties” (Bioorg Med Chem, 2013).
# Active and inactive are the calls of the source. The rule behind the calls is not given here.
# Assays:
# Cowpox virus = assay: Antiviral activity against Cowpox virus infected in human HFF cells assessed as reduction of viral replication; format: functional, organism-based
# Enterovirus = assay: Antiviral activity against Rhinovirus infected in human HeLa Ohio1 cells assessed as reduction of viral replication; format: functional, organism-based
# Yellow fever virus = assay: Antiviral activity against Yellow fever virus infected in african green monkey Vero cells assessed as reduction of viral replication; format: functional, organism-based
# West Nile virus = assay: Antiviral activity against West Nile virus infected in african green monkey Vero cells assessed as reduction of viral replication; format: functional, organism-based
# Dengue virus = assay: Antiviral activity against Dengue virus infected in african green monkey Vero cells assessed as reduction of viral replication; format: functional, organism-based
# [1] = Selectivity index, ratio of CC50 for MDCK cells to EC50 for influenza A virus H5N1; format: toxicity, cell-based; details: dog, read-out: Ratio CC50/EC50
# [2] = Selectivity index, ratio of CC50 for MDCK cells to EC50 for influenza B virus; format: toxicity, cell-based; details: dog, read-out: Ratio CC50/EC50
# [3] = Selectivity index, ratio of CC50 for african green monkey CV1 cells to EC50 for Measles virus; format: toxicity, cell-based, CV-1; details: read-out: Ratio CC50/EC50
# [4] = Selectivity index, ratio of CC50 for human HFF cells to EC50 for Varicella-zoster virus; format: toxicity, cell-based; details: read-out: Ratio CC50/EC50
# [5] = Selectivity index, ratio of CC50 for human HepG2.215 cells to EC50 for Hepatitis B virus; format: toxicity; details: read-out: Ratio CC50/EC50
# [6] = Selectivity index, ratio of CC50 for human HFF cells to EC50 for human cytomegalovirus; format: toxicity, cell-based; details: read-out: Ratio CC50/EC50
# Rift Valley fever virus = assay: Antiviral activity against Rift Valley fever virus infected in african green monkey Vero 76 cells assessed as reduction of viral replication; format: functional, organism-based
# [7] = Cytotoxicity against african green monkey Vero cells assessed as concentration required to cause microscopically alternation of cellular morphology; format: cell-based; details: chlorocebus sabaeus
# [8] = Cytotoxicity against human HEL cells assessed as concentration required to cause microscopically alternation of cellular morphology; format: cell-based
# [9] = Cytotoxicity against MDCK cells assessed as reduction of cell viability; format: cell-based, Canis lupus familiaris; details: dog
# Tacaribe virus = assay: Antiviral activity against Tacaribe virus infected in african green monkey Vero 76 cells assessed as reduction of viral replication; format: functional, organism-based; details: Mammarenavirus tacaribeense
# [10] = Cytotoxicity against human HepG2.215 cells assessed as reduction of cell viability; format: cell-based, HepG2 2.2.15
# [11] = Cytotoxicity against african green monkey CV1 cells assessed as reduction of cell viability; format: cell-based, CV-1; details: chlorocebus aethiops
# [12] = Cytotoxicity against human HFF cells assessed as reduction of cell viability; format: cell-based
# Influenza B virus = assay: Antiviral activity against influenza B virus infected in MDCK cells assessed as reduction of viral replication; format: functional, organism-based
# Influenza A virus [13] = assay: Antiviral activity against influenza A virus H5N1 infected in MDCK cells assessed as reduction of viral replication; format: functional, organism-based
# Human alphaherpesvirus 3 = assay: Antiviral activity against Varicella-zoster virus infected in human HFF cells assessed as reduction of viral replication; format: functional, organism-based; details: for EC50: Human alphaherpesvirus 3, HFF
# [14] = test system: Mammalian orthoreovirus 1; assay: Antiviral activity against Reovirus 1 infected in african green monkey Vero cells assessed as reduction of viral replication; format: functional, organism-based; details: for EC50: Mammalian orthoreovirus 1, Vero
# Measles morbillivirus = assay: Antiviral activity against Measles virus infected in african green monkey CV1 cells assessed as reduction of viral replication; format: functional, organism-based; details: CV-1
# Human respirovirus 3 = assay: Antiviral activity against Human parainfluenzae virus 3 infected in african green monkey Vero cells assessed as reduction of viral replication; format: functional, organism-based; details: for EC50: Human respirovirus 3, Vero
# Hepatitis B virus = assay: Antiviral activity against Hepatitis B virus infected in human HepG 2.215 cells assessed as reduction of viral replication; format: functional, organism-based; details: for EC50: HepG2.2.15
# [15] = test system: Vesicular stomatitis virus; assay: Antiviral activity against Vesicular stomatitis virus infected in human HEL cells assessed as reduction of viral replication; format: functional, organism-based
# Vaccinia virus = assay: Antiviral activity against Vaccinia virus infected in human HEL cells assessed as reduction of viral replication; format: functional, organism-based; details: Orthopoxvirus vaccinia
# Cytomegalovirus = assay: Antiviral activity against human cytomegalovirus infected in human HFF cells assessed as reduction of viral replication; format: functional, organism-based; details: for EC50: Human betaherpesvirus 5, HFF
# Punta Toro virus = assay: Antiviral activity against Punta Toro virus infected in african green monkey Vero cells assessed as reduction of viral replication; format: functional, organism-based
# [16] = test system: Human immunodeficiency virus 2; assay: Antiviral activity against HIV2 infected in human CEM cells assessed as reduction of viral replication; format: functional, organism-based; details: CCRF-CEM
# [17] = test system: Human immunodeficiency virus 1; assay: Antiviral activity against HIV1 infected in human CEM cells assessed as reduction of viral replication; format: functional, organism-based; details: CCRF-CEM
# Influenza A virus [18] = assay: Antiviral activity against influenza A H3N2 infected in MDCK cells assessed as reduction of viral replication; format: functional, organism-based
# Feline coronavirus = assay: Antiviral activity against Feline coronavirus infected in cat CRFK cells assessed as reduction of viral replication; format: functional, organism-based
# Influenza A virus [19] = assay: Antiviral activity against influenza A H1N1 infected in MDCK cells assessed as reduction of viral replication; format: functional, organism-based
# Human alphaherpesvirus 2 = assay: Antiviral activity against HSV2 infected in human HEL cells assessed as reduction of viral replication; format: functional, organism-based
# Human alphaherpesvirus 1 = assay: Antiviral activity against HSV1 infected in human HEL cells assessed as reduction of viral replication; format: functional, organism-based
# Sindbis virus = assay: Antiviral activity against Sindbis virus infected in african green monkey Vero cells assessed as reduction of viral replication; format: functional, organism-based
# Coxsackievirus B4 = assay: Antiviral activity against Human coxsackievirus B4 infected in african green monkey Vero cells assessed as reduction of viral replication; format: functional, organism-based
# Human gammaherpesvirus 4 = assay: Antiviral activity against Epstein-Barr virus infected in human HFF cells assessed as reduction of viral replication; format: functional, organism-based
# [20] = test system: Respiratory syncytial virus; assay: Antiviral activity against Respiratory syncytial virus infected in monkey MA104 cells assessed as reduction of viral replication; format: functional, organism-based
# unidentified adenovirus = assay: Antiviral activity against Adenovirus infected in human A549 cells assessed as reduction of viral replication; format: functional, organism-based
smiles,measurement,setting,value
Nc1ncc(I)c2c1ncn2[C@@H]1C[C@H](O)[C@@H](O)[C@H]1O,Activity,Cowpox virus,inactive
same,Activity,Enterovirus,inactive
same,Activity,Yellow fever virus,inactive
same,Activity,West Nile virus,inactive
same,Activity,Dengue virus,inactive
same,selectivity ratio,[1],> 6
same,selectivity ratio,[2],> 111
same,selectivity ratio,[3],23
same,selectivity ratio,[4],< 3.4
same,selectivity ratio,[5],> 370
same,selectivity ratio,[6],182
same,Activity,Rift Valley fever virus,inactive
same,MCC,[7],100 µM
same,MCC,[8],> 100 µM
same,CC50,[9],> 242 µM
same,Activity,Tacaribe virus,inactive
same,CC50,[10],> 300 µM
same,CC50,[11],67 µM
same,CC50,[12],201 µM
same,EC50,Influenza B virus,2.2 µM
same,EC50,Influenza A virus [13],44 µM
same,EC50,Human alphaherpesvirus 3,> 60 µM
same,EC50,[14],4 µM
same,EC50,Measles morbillivirus,2.9 µM
same,EC50,Human respirovirus 3,20 µM
same,EC50,Hepatitis B virus,0.808 µM
same,EC50,[15],4 µM
same,EC50,Vaccinia virus,4 µM
same,EC50,Cytomegalovirus,1.2 µM
same,EC50,Punta Toro virus,> 20 µM
same,Activity,[16],inactive
same,Activity,[17],inactive
same,Activity,Influenza A virus [18],inactive
same,Activity,Feline coronavirus,inactive
same,Activity,Influenza A virus [19],inactive
same,Activity,Human alphaherpesvirus 2,inactive
same,Activity,Human alphaherpesvirus 1,inactive
same,Activity,Sindbis virus,inactive
same,Activity,Coxsackievirus B4,inactive
same,Activity,Human gammaherpesvirus 4,inactive
same,Activity,[20],inactive
same,Activity,unidentified adenovirus,inactive
Nc1ncc(Br)c2c1ncn2[C@@H]1C[C@H](O)[C@@H](O)[C@H]1O,Activity,Cowpox virus,inactive
same,Activity,Enterovirus,inactive
same,Activity,Yellow fever virus,inactive
same,Activity,West Nile virus,inactive
same,Activity,Dengue virus,inactive
same,selectivity ratio,[2],> 100
same,selectivity ratio,[4],> 2630
same,selectivity ratio,[5],> 454
same,selectivity ratio,[6],> 175
same,Activity,Rift Valley fever virus,inactive
same,MCC,[7],> 8 µM
same,MCC,[8],> 200 µM
same,CC50,[9],> 273 µM
same,Activity,Tacaribe virus,inactive
same,CC50,[10],> 10 µM
same,CC50,[11],> 273 µM
same,CC50,[12],> 300 µM
same,EC50,Influenza B virus,27 µM
same,EC50,Human alphaherpesvirus 3,0.11 µM
same,EC50,[14],1.6 µM
same,EC50,Measles morbillivirus,> 273 µM
same,EC50,Human respirovirus 3,8 µM
same,EC50,Hepatitis B virus,0.022 µM
same,EC50,[15],> 200 µM
same,EC50,Vaccinia virus,24 µM
same,EC50,Cytomegalovirus,1.7 µM
same,EC50,Punta Toro virus,> 8 µM
same,Activity,[16],inactive
same,Activity,[17],inactive
same,Activity,Influenza A virus [18],inactive
same,Activity,Feline coronavirus,inactive
same,Activity,Influenza A virus [19],inactive
same,Activity,Human alphaherpesvirus 2,inactive
same,Activity,Human alphaherpesvirus 1,inactive
same,Activity,Sindbis virus,inactive
same,Activity,Coxsackievirus B4,inactive
same,Activity,Human gammaherpesvirus 4,inactive
same,Activity,[20],inactive
same,Activity,unidentified adenovirus,inactive
Cc1cnc(N)c2ncn([C@@H]3C[C@H](O)[C@@H](O)[C@H]3O)c12,Activity,Cowpox virus,inactive
same,Activity,Enterovirus,inactive
same,Activity,Yellow fever virus,inactive
same,Activity,West Nile virus,inactive
same,Activity,Dengue virus,inactive
same,Activity,Rift Valley fever virus,inactive
same,Activity,Tacaribe virus,inactive
same,Activity,Influenza B virus,inactive
same,Activity,Influenza A virus [13],inactive
same,Activity,Human alphaherpesvirus 3,inactive
same,Activity,[14],inactive
same,Activity,Measles morbillivirus,inactive
same,Activity,Human respirovirus 3,inactive
same,Activity,Hepatitis B virus,inactive
same,Activity,[15],inactive
same,Activity,Vaccinia virus,inactive
same,Activity,Cytomegalovirus,inactive
same,Activity,Punta Toro virus,inactive
same,Activity,[16],inactive
same,Activity,[17],inactive
same,Activity,Influenza A virus [18],inactive
same,Activity,Feline coronavirus,inactive
same,Activity,Influenza A virus [19],inactive
same,Activity,Human alphaherpesvirus 2,inactive
same,Activity,Human alphaherpesvirus 1,inactive
same,Activity,Sindbis virus,inactive
same,Activity,Coxsackievirus B4,inactive
same,Activity,Human gammaherpesvirus 4,inactive
same,Activity,[20],inactive
same,Activity,unidentified adenovirus,inactive
Nc1ncc(Cl)c2c1ncn2[C@@H]1C[C@H](O)[C@@H](O)[C@H]1O,Activity,Cowpox virus,inactive
same,Activity,Enterovirus,inactive
same,Activity,Yellow fever virus,inactive
same,Activity,West Nile virus,inactive
same,Activity,Dengue virus,inactive
same,selectivity ratio,[1],> 77
same,selectivity ratio,[2],> 500
same,selectivity ratio,[3],> 1730
same,Activity,Rift Valley fever virus,inactive
same,MCC,[7],> 200 µM
same,MCC,[8],> 100 µM
same,CC50,[9],> 311 µM
same,Activity,Tacaribe virus,inactive
same,CC50,[10],> 300 µM
same,CC50,[11],311 µM
same,CC50,[12],> 300 µM
same,EC50,Influenza B virus,0.62 µM
same,EC50,Influenza A virus [13],4 µM
same,EC50,Human alphaherpesvirus 3,> 300 µM
same,EC50,[14],1.6 µM
same,EC50,Measles morbillivirus,0.18 µM
same,EC50,Human respirovirus 3,1.6 µM
same,EC50,Hepatitis B virus,> 10 µM
same,EC50,[15],8 µM
same,EC50,Vaccinia virus,120 µM
same,EC50,Punta Toro virus,24 µM
same,Activity,[16],inactive
same,Activity,[17],inactive
same,Activity,Influenza A virus [18],inactive
same,Activity,Feline coronavirus,inactive
same,Activity,Influenza A virus [19],inactive
same,Activity,Human alphaherpesvirus 2,inactive
same,Activity,Human alphaherpesvirus 1,inactive
same,Activity,Sindbis virus,inactive
same,Activity,Coxsackievirus B4,inactive
same,Activity,Human gammaherpesvirus 4,inactive
same,Activity,[20],inactive
same,Activity,unidentified adenovirus,inactive
